Read-outs that look alike come from different tables or passages of the source.
Tests used:
Type in all cases: in vivo, human
[1] = Pharmacokinetics (plasma concentration, Cmax, AUC, trough); details: for concentration at 7 day: human, plasma, oral, Day 7, read-out: Trough plasma concentration, Geo Mean
From the text: Pharmacokinetic endpoints of this study are PK parameters, including, of area under the plasma concentration versus time curve (AUC), maximum plasma concentration (Cmax), time to maximum concentration (Tmax), and half-life (t1/2) will be summarized descriptively for Randomization (baseline) and Study Weeks 1, 4, and 8
(§1) PK/PD Analysis Set includes all subjects in the SAF who have sufficient data available for the analysis of pharmacokinetic and pharmacodynamic measurements. In the analyses based on PKPD, subjects will be analyzed according to the actual treatment received.

[2] = test system: 11-deoxycortisol; experiment: Pharmacodynamics: plasma 11-deoxycortisol; details: for 11-Deoxycortisol, mean observed: BL
From the text: as §1

[3] = Estimated glomerular filtration rate (eGFR, CKD-EPI equation); details: for Estimated Glomerular Filtration Rate, mean observed / Estimated Glomerular Filtration Rate, mean change from baseline: Part 1
[4] = steady state, Day 28, 100 mg QD Part 1

CC(=O)N[C@H]1CC[C@H](NC(=O)CN2CCN(c3nncc(-c4ccc(C)cc4)n3)CC2)CC1 [Compound A HBr]
Systemic exposure expressed as Cmax or AUC ([1]; across doses): increased with increasing dose | concentration at 7 day ([1]; 12.5 mg, 12.5 mg BID): 20.4 ng/mL | concentration at 7 day ([1]; 12.5 mg, 12.5 mg QD): 6.55 ng/mL | concentration at 7 day ([1]; 25 mg, 25 mg BID): 49.6 ng/mL | concentration at 7 day ([1]; 50 mg, 50 mg QD): 16.6 ng/mL | concentration at 7 day ([1]; 100 mg, 100 mg QD Part 1): 53.4 ng/mL | concentration at 7 day ([1]; 100 mg, 100 mg QD Part 2): 35.1 ng/mL | AUC0-24, Median [1, 4]: 15000 ng·h/mL | Cmax, Geo Mean [1, 4]: 1370 ng/mL | 11-Deoxycortisol, mean observed ([2]; Part 1, 12.5 mg BID): 28.36 ng/dL | 11-Deoxycortisol, mean observed ([2]; Part 1, 12.5 mg QD): 29.07 ng/dL | 11-Deoxycortisol, mean observed ([2]; Part 1, 25 mg BID): 25.87 ng/dL | 11-Deoxycortisol, mean observed ([2]; Part 1, 50 mg QD): 31.14 ng/dL | 11-Deoxycortisol, mean observed ([2]; Part 1, 100 mg QD): 29.97 ng/dL | 11-deoxycortisol ([2]; Part 1 active treatment arms, Week 4 compared with placebo): Transient increases | 11-Deoxycortisol, mean observed ([2]; Part 2, 100 mg QD): 40.79 ng/dL | eGFR mean maximum decline relative to baseline ([3]; 100 mg QD, Part 1, Week 2): 10.91 mL/min/1.73 m^2 | Estimated Glomerular Filtration Rate, mean observed ([3]; 12.5 mg BID, BL): 81.70 mL/min/1.73 m^2 | Estimated Glomerular Filtration Rate, mean change from baseline ([3]; 12.5 mg BID, Week 1): −2.25 mL/min/1.73 m^2 | Estimated Glomerular Filtration Rate, mean observed ([3]; 12.5 mg BID, Week 1): 79.45 mL/min/1.73 m^2 | Estimated Glomerular Filtration Rate, mean change from baseline ([3]; 12.5 mg BID, Week 2): −3.69 mL/min/1.73 m^2 | Estimated Glomerular Filtration Rate, mean observed ([3]; 12.5 mg BID, Week 2): 78.86 mL/min/1.73 m^2 | Estimated Glomerular Filtration Rate, mean change from baseline ([3]; 12.5 mg BID, Week 3): −5.17 mL/min/1.73 m^2 | Estimated Glomerular Filtration Rate, mean observed ([3]; 12.5 mg BID, Week 3): 77.38 mL/min/1.73 m^2 | Estimated Glomerular Filtration Rate, mean change from baseline ([3]; 12.5 mg BID, Week 4): −6.58 mL/min/1.73 m^2 | Estimated Glomerular Filtration Rate, mean observed ([3]; 12.5 mg BID, Week 4): 76.30 mL/min/1.73 m^2 | Estimated Glomerular Filtration Rate, mean change from baseline ([3]; 12.5 mg BID, Week 5): −7.58 mL/min/1.73 m^2 | Estimated Glomerular Filtration Rate, mean observed ([3]; 12.5 mg BID, Week 5): 73.84 mL/min/1.73 m^2 | Estimated Glomerular Filtration Rate, mean change from baseline ([3]; 12.5 mg BID, Week 6): −6.45 mL/min/1.73 m^2 | Estimated Glomerular Filtration Rate, mean observed ([3]; 12.5 mg BID, Week 6): 74.70 mL/min/1.73 m^2 | Estimated Glomerular Filtration Rate, mean change from baseline ([3]; 12.5 mg BID, Week 7): −7.03 mL/min/1.73 m^2 | Estimated Glomerular Filtration Rate, mean observed ([3]; 12.5 mg BID, Week 7): 75.85 mL/min/1.73 m^2 | Estimated Glomerular Filtration Rate, mean change from baseline ([3]; 12.5 mg BID, Week 8): −6.66 mL/min/1.73 m^2 | Estimated Glomerular Filtration Rate, mean observed ([3]; 12.5 mg BID, Week 8): 76.32 mL/min/1.73 m^2 | Estimated Glomerular Filtration Rate, mean observed ([3]; 12.5 mg QD, BL): 77.87 mL/min/1.73 m^2 | Estimated Glomerular Filtration Rate, mean change from baseline ([3]; 12.5 mg QD, Week 1): −4.30 mL/min/1.73 m^2 | Estimated Glomerular Filtration Rate, mean observed ([3]; 12.5 mg QD, Week 1): 73.57 mL/min/1.73 m^2 | Estimated Glomerular Filtration Rate, mean change from baseline ([3]; 12.5 mg QD, Week 2): −4.87 mL/min/1.73 m^2 | Estimated Glomerular Filtration Rate, mean observed ([3]; 12.5 mg QD, Week 2): 73.00 mL/min/1.73 m^2 | Estimated Glomerular Filtration Rate, mean change from baseline ([3]; 12.5 mg QD, Week 3): −2.05 mL/min/1.73 m^2 | Estimated Glomerular Filtration Rate, mean observed ([3]; 12.5 mg QD, Week 3): 77.21 mL/min/1.73 m^2 | Estimated Glomerular Filtration Rate, mean change from baseline ([3]; 12.5 mg QD, Week 4): −5.45 mL/min/1.73 m^2 | Estimated Glomerular Filtration Rate, mean observed ([3]; 12.5 mg QD, Week 4): 73.40 mL/min/1.73 m^2 | Estimated Glomerular Filtration Rate, mean change from baseline ([3]; 12.5 mg QD, Week 5): −3.60 mL/min/1.73 m^2 | Estimated Glomerular Filtration Rate, mean observed ([3]; 12.5 mg QD, Week 5): 75.25 mL/min/1.73 m^2 | Estimated Glomerular Filtration Rate, mean change from baseline ([3]; 12.5 mg QD, Week 6): −6.28 mL/min/1.73 m^2 | Estimated Glomerular Filtration Rate, mean observed ([3]; 12.5 mg QD, Week 6): 73.39 mL/min/1.73 m^2 | Estimated Glomerular Filtration Rate, mean change from baseline ([3]; 12.5 mg QD, Week 7): −7.17 mL/min/1.73 m^2 | Estimated Glomerular Filtration Rate, mean observed ([3]; 12.5 mg QD, Week 7): 72.50 mL/min/1.73 m^2 | Estimated Glomerular Filtration Rate, mean change from baseline ([3]; 12.5 mg QD, Week 8): −3.67 mL/min/1.73 m^2 | Estimated Glomerular Filtration Rate, mean observed ([3]; 12.5 mg QD, Week 8): 76.00 mL/min/1.73 m^2 | Estimated Glomerular Filtration Rate, mean observed ([3]; 25 mg BID, BL): 80.85 mL/min/1.73 m^2 | Estimated Glomerular Filtration Rate, mean change from baseline ([3]; 25 mg BID, Week 1): −6.85 mL/min/1.73 m^2 | Estimated Glomerular Filtration Rate, mean observed ([3]; 25 mg BID, Week 1): 74.00 mL/min/1.73 m^2 | Estimated Glomerular Filtration Rate, mean change from baseline ([3]; 25 mg BID, Week 2): −5.42 mL/min/1.73 m^2 | Estimated Glomerular Filtration Rate, mean observed ([3]; 25 mg BID, Week 2): 75.43 mL/min/1.73 m^2 | Estimated Glomerular Filtration Rate, mean change from baseline ([3]; 25 mg BID, Week 3): −5.90 mL/min/1.73 m^2 | Estimated Glomerular Filtration Rate, mean observed ([3]; 25 mg BID, Week 3): 75.07 mL/min/1.73 m^2 | Estimated Glomerular Filtration Rate, mean change from baseline ([3]; 25 mg BID, Week 4): −6.69 mL/min/1.73 m^2 | Estimated Glomerular Filtration Rate, mean observed ([3]; 25 mg BID, Week 4): 73.48 mL/min/1.73 m^2 | Estimated Glomerular Filtration Rate, mean change from baseline ([3]; 25 mg BID, Week 5): −7.41 mL/min/1.73 m^2 | Estimated Glomerular Filtration Rate, mean observed ([3]; 25 mg BID, Week 5): 73.25 mL/min/1.73 m^2

— patent US20260053812A1, “METHODS OF TREATING HYPERTENSION WITH A COMBINATION OF AN ALDOSTERONE SYNTHASE INHIBITOR AND A DIURETIC” (Mineralys Therapeutics, Inc., priority 2022, published 2026)
